In PMC8037310, “Thrombin-Derived Peptides Potentiate the Activity of Gram-Positive-Specific Antibiotics against Gram-Negative Bacteria” (Molecules, 2021):
Several values for one entry are separate records, joined by “and”; a condition that tells them apart may be missing. Equal values may be shown once. Read-outs that look alike come from different tables or passages of the source. Peptide text beside a SMILES is read from it.

Tests used:
E. coli BW25113 [1] = assay: Checkerboard assay with erythromycin; assay type: cell-based, Escherichia coli; conditions: for MSCery: erythromycin concentration in the combination with the synergist giving the lowest FICi, E. coli BW25113; for MIC of the peptide (MICpep): synergist alone, from checkerboard with erythromycin; for MIC of the peptide (MICpep) / MSCpeptide, minimum synergistic concentration: E. coli BW25113, LB, 20 h 37 °C; for MSCpeptide, minimum synergistic concentration: synergist concentration in the combination with erythromycin giving the lowest FICi, OD600
E. coli BW25113 [2] = assay type: cell-based, Escherichia coli; conditions: for FICi: BW25113, 20 h; for MICpep: synergist alone, E. coli BW25113, from checkerboard with rifampicin; for MSCpep: synergist concentration in the combination with rifampicin giving the lowest FICi, E. coli BW25113
[3] = system: E. coli EQASmcr-1 (EQAS 2016 412016126); assay type: cell-based, Escherichia coli; conditions: for MICpeptide: peptide alone; for MICpeptide / MSCpeptide / MSCrif: E. coli EQASmcr-1; for MSCpeptide: peptide concentration in the combination with rifampicin giving the lowest FICi; for MSCrif: rifampicin concentration in the combination giving the lowest FICi
[4] = system: E. coli EQASmcr-2 (EQAS 2016 KP37); assay type: cell-based, Escherichia coli; conditions: for MICpeptide: peptide alone; for MICpeptide / MSCpeptide / MSCrif: E. coli EQASmcr-2; for MSCpeptide: peptide concentration in the combination with rifampicin giving the lowest FICi; for MSCrif: rifampicin concentration in the combination giving the lowest FICi
[5] = system: E. coli EQASmcr-3 (EQAS 2017 2013-SQ352); assay type: cell-based, Escherichia coli; conditions: for MICpeptide: peptide alone; for MICpeptide / MSCpeptide / MSCrif: E. coli EQASmcr-3; for MSCpeptide: peptide concentration in the combination with rifampicin giving the lowest FICi; for MSCrif: rifampicin concentration in the combination giving the lowest FICi
E. coli W3110 = assay type: cell-based, Escherichia coli; conditions: for MICpeptide: peptide alone; for MICpeptide / MSCpeptide / MSCrif: E. coli W3110; for MSCpeptide: peptide concentration in the combination with rifampicin giving the lowest FICi; for MSCrif: rifampicin concentration in the combination giving the lowest FICi
E. coli BW25113 [6] = assay: microbe, parasite or virus in culture; assay type: cell-based, Escherichia coli; conditions: for MSCnovo: novobiocin concentration in the combination giving the lowest FICi; for MSCnovo / MSCpeptide: E. coli BW25113; for MICpeptide: synergist alone, E. coli BW25113, from checkerboard with novobiocin; for MSCpeptide: synergist concentration in the combination with novobiocin giving the lowest FICi
Procedure: (§1) All peptides were screened for antimicrobial activity against E. coli BW25113, E. coli ATCC25922, and E. coli W3110. A select group of the peptides was further tested against E. coli mcr-1, E. coli EQASmcr-1 (EQAS 2016 412016126), E. coli EQASmcr-2 (EQAS 2016 KP37), E. coli EQASmcr-3 (EQAS 2017 2013-SQ352), K. pneumoniae ATCC13883, P. aeruginosa ATCC27853, and A. baumannii ATCC17978. The antimicrobial assay was performed according to CLSI guidelines. Bacteria were plated out directly from their glycerol stocks on blood agar plates, incubated overnight at 37 °C, and then kept in the fridge. The blood agar plates were only used for 2 weeks and then replaced.
(§2) One colony from a blood agar plates was inoculated in Lysogeny Broth (LB) at 37 °C until a 0.5 optical density at 600 nm (OD600) was reached (compared to the sterility control of LB). The bacterial suspension was diluted in fresh LB to 2.0 × 10^6 CFU/mL. The serial dilutions were prepared in polypropylene microtiter plates: a stock of the test compounds was prepared with a 2x final concentration in LB. Moreover, 100 µL of the stock was added to the wells of the top row of which 50 µL was used for the serial dilution. The bottom row of each plate was used as the positive (50 µL of LB) and negative controls (100 µL of LB) (6 wells each). Furthermore, 50 µL of the 2.0 × 10^6 CFU/mL bacterial stock was added to each well except for the negative controls, adding up to a total volume of 100 µL per well. The plates were sealed with a breathable seal and incubated for 20 h at 37 °C and 600 rpm.
(§3) Two 96-well plates were required per compound. A serial dilution of the compound was performed on two plates from row A–G using with LB as medium. Row H was filled with 25 µL medium. On a separate plate a negative control (8 wells, 100 μL medium) was prepared. For all concentrations of antibiotic a specific stock was prepared. 25 µL medium was added to the 0 µg/mL antibiotic columns (plate I, column 1–3). Of each antibiotic stock 25 µL was added to three columns to obtain triplicates for every condition. Both plates contained 50 µL in each well to which 50 µL bacterial stock was added (see the protocol of the MIC assays) and the plates were sealed. After incubation for 20 h at 37 °C while shaking, the breathable seals were removed and the density of the bacterial suspensions measured at 600 nm (OD600) using a Tecan Spark plate reader. The OD600 values were transformed to a 2D gradient with the negative control as minimum and the positive control (wells G1, G2, and G3) as maximum in excel. The FICi was calculated using Equation (1) with a FICi ≤ 0.5 indicating synergy. FICi = (MSCa/MICa) + (MSCb/MICb),(1)
(§4) Calculation of the FICi: MSCa = concentration of the […] in combination with the antibiotic that results in the lowest FICi. MICa = MIC of the antibiotic without synergist (row G). MSCb = concentration of the synergist in combination with the antibiotic that results in the lowest FICi. MICb = MIC of the synergist itself (Column 1–3, plate I).

P. aeruginosa ATCC27853 = assay: Checkerboard assay with rifampicin; assay type: cell-based, Pseudomonas aeruginosa; conditions: for MICpeptide: peptide alone; for MICpeptide / MSCpeptide / MSCrif: P. aeruginosa ATCC27853; for MSCpeptide: peptide concentration in the combination with rifampicin giving the lowest FICi; for MSCrif: rifampicin concentration in the combination giving the lowest FICi
Procedure: as §1, §2, §3, §4

[7] = system: defibrinated sheep blood (red blood cells); assay: Hemolysis assay; assay type: cell-based; conditions: 200 µg/mL compound, 20 h incubation at 37 °C with defibrinated sheep blood, PBS 0.002% Tween20, absorbance 415 nm, relative to 0.1% Triton X-100; n=3 technical replicates
Procedure, shortened: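 % hemolysis is supernatant absorbance at 415 nm, minus the buffer-only background, relative to 0.1% Triton X-100 lysis. Compound dilutions (200–1.56 µg/mL before adding cells) were incubated with an equal volume of red cells for 20 h at 37 °C and 500 rpm. Cells were washed and normalized in PBS/0.002% Tween20 to about 2.5 A415 at full lysis.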

[8] = EQASmcr-1 (EQAS 2016 412016126, 20 h)
[9] = EQASmcr-2 (EQAS 2016 KP37, 20 h)

## CC[C@H](C)[C@H](NC(=O)[C@@H](NC(=O)[C@H](CCCCN)NC(=O)[C@H](CCC(N)=O)NC(=O)[C@@H](NC(=O)[C@H](C)NC(=O)[C@H](CCCCN)NC(=O)[C@H](CCCCN)NC(=O)[C@H](CC(C)C)NC(=O)[C@H](CCCNC(=N)N)NC(=O)[C@H](Cc1ccccc1)NC(=O)[C@@H](N)C(C)C)[C@@H](C)CC)C(C)C)C(N)=O [peptide 14] (H-VFRLKKAIQKVI-NH2)
E. coli BW25113 [1]
  MSCery: 12.5 µg/mL
  MIC of the peptide (MICpep): > 200 µg/mL
  MSCpeptide, minimum synergistic concentration: 6.25 µg/mL
E. coli BW25113 [2]
  FICi: 0.1406
  MICpep: > 200 µg/mL
  MSCpep: 50 µg/mL
[3]; [8]
  FICi: 0.0938
[3]
  MICpeptide: > 200 µg/mL
  MSCpeptide: 12.5 µg/mL
  MSCrif: 0.5 µg/mL
[4]; [9]
  FICi: 0.0938
[4]
  MICpeptide: > 200 µg/mL
  MSCpeptide: 25 µg/mL
  MSCrif: 0.25 µg/mL
[5]; EQASmcr-3 (EQAS 2017 2013-SQ352, 20 h)
  FICi: 0.0469
[5]
  MICpeptide: > 200 µg/mL
  MSCpeptide: 12.5 µg/mL
  MSCrif: 0.125 µg/mL
E. coli W3110; W3110, 20 h
  FICi: 0.1875
E. coli W3110
  MICpeptide: > 200 µg/mL
  MSCpeptide: 50 µg/mL
  MSCrif: 0.5 µg/mL
E. coli BW25113 [6]; BW25113, 20 h
  FICi: 0.0313
E. coli BW25113 [6]
  MSCnovo: 6.25 µg/mL
  MICpeptide: > 200 µg/mL
  MSCpeptide: 6.25 µg/mL
P. aeruginosa ATCC27853
  MICpeptide: > 200 µg/mL
  MSCpeptide: 50 µg/mL
  MSCrif: 0.5 µg/mL
[7]
  Hemolysis: 0.9% and 1%

## CC[C@H](C)[C@H](NC(=O)[C@H](Cc1c[nH]c2ccccc12)NC(=O)[C@H](CCCCN)NC(=O)[C@H](CCCCN)NC(=O)[C@H](CC(C)C)NC(=O)[C@H](CCCNC(=N)N)NC(=O)[C@H](Cc1ccccc1)NC(=O)[C@@H](N)C(C)C)C(=O)N[C@@H](CCC(N)=O)C(=O)N[C@@H](CCCCN)C(=O)N[C@H](C(=O)N[C@@H](C)C(N)=O)C(C)C [peptide 19] (H-VFRLKKWIQKVA-NH2)
E. coli BW25113 [1]
  MSCery: 12.5 µg/mL
  MIC of the peptide (MICpep): 100 µg/mL
  MSCpeptide, minimum synergistic concentration: 3.125 µg/mL
E. coli BW25113 [2]
  FICi: 0.0781
  MICpep: 100 µg/mL
  MSCpep: 6.25 µg/mL
[3]; [8]
  FICi: 0.0938
[3]
  MICpeptide: > 200 µg/mL
  MSCpeptide: 12.5 µg/mL
  MSCrif: 0.5 µg/mL
[4]
  MICpeptide: 200 µg/mL
  MSCpeptide: 12.5 µg/mL
  MSCrif: 0.5 µg/mL
[4]; with rifampicin vs E. coli EQASmcr-2
  FICi: 0.1250
[5]
  MICpeptide: > 200 µg/mL
  MSCpeptide: 6.25 µg/mL
  MSCrif: 0.125 µg/mL
E. coli W3110; W3110, 20 h
  FICi: 0.0782
E. coli W3110
  MICpeptide: 100 µg/mL
  MSCpeptide: 3.125 µg/mL
  MSCrif: 0.5 µg/mL
E. coli BW25113 [6]; BW25113, 20 h
  FICi: 0.0390
E. coli BW25113 [6]
  MSCnovo: 3.125 µg/mL
  MICpeptide: 200 µg/mL
  MSCpeptide: 6.25 µg/mL
P. aeruginosa ATCC27853
  MICpeptide: 100 µg/mL
  MSCpeptide: 25 µg/mL
  MSCrif: 0.25 µg/mL
[7]
  Hemolysis: 1.0%

## CC[C@H](C)[C@H](NC(=O)[C@@H](NC(=O)[C@H](CCCCN)NC(=O)[C@H](CCC(N)=O)NC(=O)[C@@H](NC(=O)[C@H](Cc1c[nH]c2ccccc12)NC(=O)[C@H](CCCCN)NC(=O)[C@H](CCCCN)NC(=O)[C@H](CC(C)C)NC(=O)[C@H](C)NC(=O)[C@H](Cc1ccccc1)NC(=O)[C@@H](N)C(C)C)[C@@H](C)CC)C(C)C)C(N)=O [peptide 10] (H-VFALKKWIQKVI-NH2)
E. coli BW25113 [1]
  MSCery: 3.125 µg/mL
  MIC of the peptide (MICpep): 100 µg/mL
  MSCpeptide, minimum synergistic concentration: 12.5 µg/mL
E. coli BW25113 [2]
  MICpep: 100 µg/mL
  MSCpep: 12.5 µg/mL
[3]
  MICpeptide: 200 µg/mL
  MSCpeptide: 12.5 µg/mL
  MSCrif: 0.125 µg/mL
[3]; with rifampicin vs E. coli EQASmcr-1
  FICi: 0.0781
[4]; [9]
  FICi: 0.1406
[4]
  MICpeptide: 100 µg/mL
  MSCpeptide: 12.5 µg/mL
  MSCrif: 0.125 µg/mL
[5]
  MICpeptide: 200 µg/mL
  MSCpeptide: 12.5 µg/mL
  MSCrif: 0.125 µg/mL
[5]; with rifampicin vs E. coli EQASmcr-3
  FICi: 0.0781
E. coli W3110
  MICpeptide: 25 µg/mL
  MSCpeptide: 12.5 µg/mL
  MSCrif: 0.125 µg/mL
E. coli W3110; with rifampicin vs E. coli W3110, synergy defined as FICi ≤ 0.5
  FICi: > 0.5
E. coli BW25113 [6]
  MSCnovo: 6.25 µg/mL
  MICpeptide: 100 µg/mL
  MSCpeptide: 6.25 µg/mL
E. coli BW25113 [6]; with novobiocin vs E. coli BW25113
  FICi: 0.0781
P. aeruginosa ATCC27853
  MICpeptide: > 200 µg/mL
  MSCpeptide: 100 µg/mL
  MSCrif: 4 µg/mL
P. aeruginosa ATCC27853; with rifampicin vs P. aeruginosa ATCC27853, synergy defined as FICi ≤ 0.5
  FICi: 0.2500
[7]
  Hemolysis: 3.8% and 4%
